# Reference: patent publication US9756864B2
# How the values were obtained:
# [1] = tested on: Venturia inaequalis; experiment: Venturia test (apples)/preventive; conditions: preventive spray, 10 days after inoculation
# Description: Venturia Test (Apples)/Preventive
# After the spray coating has dried on, the plants are inoculated with an aqueous conidia suspension of the causal agent of apple scab (Venturia inaequalis) and then remain for 1 day in an incubation cabinet at approximately 20° C. and a relative atmospheric humidity of 100%.
# The plants are then placed in a greenhouse at approximately 21° C. and a relative atmospheric humidity of approximately 90%.
# The test is evaluated 10 days after the inoculation.
# [2] = tested on: Alternaria solani; experiment: Alternaria test (tomatoes)/preventive; conditions: preventive spray, 3 days after inoculation
# Description: The application rate of QST30002 refers to the amount of dried Bacillus subtilis AQ30002 aka QST300202 (NRRL Accession No. B-50421.
# After the spray coating has dried on, the plants are inoculated with an aqueous spore suspension of Alternaria solani. The plants are then placed in an incubation cabinet at approximately 20° C. and a relative atmospheric humidity of 100%.
# The test is evaluated 3 days after the inoculation.
# [3] = tested on: Sphaerotheca fuliginea; experiment: Sphaerotheca test (cucumbers)/preventive; conditions: preventive spray, 7 days after inoculation
# Description: Sphaerotheca Test (Cucumbers)/Preventive
# After the spray coating has dried on, the plants are inoculated with an aqueous spore suspension of Sphaerotheca fuliginea. The plants are then placed in a greenhouse at approximately 23° C. and a relative atmospheric humidity of approximately 70%.
# The test is evaluated 7 days after the inoculation.
# [4] = tested on: Phytophthora infestans; type: in vivo; conditions: Table A; 100 ppm a.i.; tomatoes, preventive spray; 3 days after inoculation
# [5] = tested on: Botrytis cinerea; experiment: Botrytis test (beans)/preventive; conditions: Table E, 100 ppm a.i., preventive spray, lesion size 2 days after inoculation
# Description: Botrytis Test (Beans)/Preventive
# After the spray coating has dried on, 2 small pieces of agar covered with growth of Botrytis cinerea are placed on each leaf. The inoculated plants are placed in a darkened chamber at 20° C. and a relative atmospheric humidity of 100%.
# 2 days after the inoculation, the size of the lesions on the leaves is evaluated.
compound,measurement,setting,value
"O=C(NCCc1ncc(C(F)(F)F)cc1Cl)c1ccccc1C(F)(F)F [F70 fluopyram, fluopyram]",Efficacy in % found (activity found),"[1]; Table B1, 4 ppm a.i.",4%
same,Efficacy in % found (activity found),"[2]; Table D1, 4 ppm a.i.",33%
same,Efficacy in % found (activity found),"[3]; Table C2, 4 ppm a.i.",10%
"CC(C)Oc1cccc(NC(=O)c2ccccc2C(F)(F)F)c1 [F71 flutolanil, flutolanil]",Efficacy in % found (activity found),[4],33%
same,Efficacy in % found (activity found),[5],0%
same,Efficacy in % found (activity found),"[1]; Table B2, 100 ppm a.i.",4%
same,Efficacy in % found (activity found),"[2]; Table D2, 50 ppm a.i.",43%
same,Efficacy in % found (activity found),"[3]; Table C1, 100 ppm a.i.",0%
"Cn1cc(C(=O)Nc2ccccc2-c2cc(F)c(F)c(F)c2)c(C(F)F)n1 [F72 fluxapyroxad, fluxapyroxad]",Efficacy in % found (activity found),"[1]; Table B1, 0.5 ppm a.i.",43%
same,Efficacy in % found (activity found),"[2]; Table D1, 1 ppm a.i.",47%
same,Efficacy in % found (activity found),"[3]; Table C2, 1 ppm a.i.",29%
"Cc1nn(C)c(F)c1C(=O)Nc1ccccc1C(C)CC(C)C (stereo not shown) [F84 penflufen, penflufen]",Efficacy in % found (activity found),"[1]; Table B1, 2 ppm a.i.",0%
same,Efficacy in % found (activity found),"[3]; Table C2, 2 ppm a.i.",0%
